The source of these data is US12012467B2, “Small molecule DCN1 inhibitors and therapeutic methods using the same” (THE REGENTS OF THE UNIVERSITY OF MICHIGAN, priority 2017, dated 2024).

Each structure is given as a SMILES string. Like-named read-outs stand apart in the source and are kept apart here. Numbered stars: 1 amine (or outer) side, 2 acyl side, 3 side chain; on linkers, the order of the positions; unused ones are H or OH. Square brackets hold non-standard residues; d marks the D form. Peptide text beside a SMILES is read from it. * marks the point of attachment. Ala(6-iPr-benzothiazol-2-yl) = CC(C)c1ccc2nc(C[C@H](N)C(=O)O)sc2c1; Ala(benzothiazol-2-yl) = N[C@@H](Cc1nc2ccccc2s1)C(=O)O; 2Nal = N[C@@H](Cc1ccc2ccccc2c1)C(=O)O; Isovaleryl = CC(C)CC(=O)*; CO = O=C([*:1])[*:2]; Propionyl = CCC(=O)*; For = O=C*

The target of the assay is DCN1 (Homo sapiens (Human), UniProt Q96GG9). Nature of the assay: Competitive FP binding assay. On the procedure: Competitive FP Binding Assay
Chain of DCN1 (Q96GG9 58-259): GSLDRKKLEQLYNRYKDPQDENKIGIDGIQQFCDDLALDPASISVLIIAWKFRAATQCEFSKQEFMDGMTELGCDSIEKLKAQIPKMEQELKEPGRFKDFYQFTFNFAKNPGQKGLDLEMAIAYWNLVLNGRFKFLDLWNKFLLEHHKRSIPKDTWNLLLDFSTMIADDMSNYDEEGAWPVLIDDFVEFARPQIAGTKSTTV
The Fluorescence Polarization (FP) competitive binding assays were performed to accurately determine the binding affinities of our DCN1 inhibitors. […] Serial dilutions of proteins were mixed with 46 to a final volume of 200 μl in the assay buffer (100 mM phosphate buffer, pH=6.5, with 0.02% Tween-20 and 2% DMSO). Final probe concentration was 5 nM for both assays. Plates were incubated at room temperature for 30 minutes with gentle shaking to assure equilibrium.
Pure proteins were derived from the same expression and purification protocols. Plasmids were transformed into Rosetta2 cells, the cells were grown in Terrific Broth at 37° C. to an O.D.600>1.0 and induced with 0.4 mM Isopropyl (3-D-1-thiogalactopyranoside overnight at 20° C. The pelleted cells were resuspended in lysis buffer containing 25 mM Tris-HCl, pH 7.5, 200 mM NaCl and protease inhibitors, sonicated and centrifuged at 34,000×g for 45 minutes to remove debris. Cleared lysate was incubated with Ni-NTA resin (Qiagen) prewashed with lysis buffer, for 1 hr at 4° C. The matrix was loaded into a column then washed with 25 mM Tris-HCl, pH 7.5, 200 mM NaCl and 10 mM imidazole. Protein was eluted with 25 mM Tris-HCl, pH 7.5, 200 mM NaCl and 300 mM imidazole, concentrated and applied to a Superdex 75 (GE Healthcare) column pre-equilibrated with 25 mM Tris pH 7.5, 200 mM NaCl and 1 mM DTT. For DCN2-5, the N-terminal His6 tag was removed prior to gel filtration. Tag removal was achieved through incubation with TEV protease during overnight dialysis against 25 mM Tris pH 7.5, 200 mM NaCl and 1 mM DTT and a second Ni-NTA column. DCN2-5 proteins were stored at −80° C. in 1 mg/mL fractions containing 5% glycerol. The uncleaved DCN1 protein was stored at −80° C. without glycerol.

The mark [1] stands for this setting: read-out: Binding affinity to DCN1 (IC50 (nM)).
Where [2] appears, read: bounds given in μM, read-out: Binding affinity to DCN1 (IC50).

For `CCC(=O)N[C@@H](Cc1nc2ccc(C(C)C)cc2s1)C(=O)N[C@H](C(=O)N[C@@H](CCCCN)C(=O)N[C@@H](CC(C)C)C(N)=O)[C@@H](C)CC` [Example 273] (Propionyl-[Ala(6-iPr-benzothiazol-2-yl)]IKL-NH2), the IC50 under setting [1] came out at 51 nM.

Consider `CCC(=O)N[C@@H](Cc1nc2ccc(Cl)cc2s1)C(=O)N[C@H](CN)C1CCCCC1` [Example 217], for which, under setting [1], the IC50 is 346 nM.

On to `CC[C@H](C)[C@H](NC(=O)[C@H](Cc1nc2ccccc2s1)NC(C)=O)C(=O)N[C@@H](CCCCN)C(=O)N[C@@H](CC(C)C)C(N)=O` [Example 2, (S)-2-((2S,3 S)-2-((S)-2-acetamido-3-(benzo[d]thiazol-2-yl)propanamido)-3-methylpentanamido)-6-amino-N—((S)-1-amino-4-methyl-1-oxopentan-2-yl)hexanamide] (Ac-[Ala(benzothiazol-2-yl)]IKL-NH2), for which the concentration for half-maximal inhibition (IC50) under setting [1] was found to be 322 nM. The same measure, in the same setting: for `CCC(=O)N[C@@H](Cc1nc2ccc(C(C)C)cc2s1)C(=O)N[C@H](CN)Cc1ccccc1` [Example 55, (S)—N—((S)-1-amino-3-phenylpropan-2-yl)-3-(6-isopropylbenzo[d]thiazol-2-yl)-2-propionamidopropanamide] the value was 179 nM. `CCC(=O)N[C@H](CNC(=O)C1(CN)CCCCC1)Cc1nc2ccc(C(C)C)cc2s1` [Example 117]: the IC50 under setting [1] was found to be 875 nM. For `CCC(=O)N[C@@H](Cc1nc2ccc(Cl)cc2s1)C(=O)N[C@H](C(=O)N[C@@H](CCCCN)C(=O)N[C@@H]1CCOc2cc(Cl)ccc21)C1CCCC1` [Example 171], the concentration for half-maximal inhibition (IC50) under setting [1] amounted to 168 nM. As for `CCC(=O)N[C@@H](Cc1nc2ccc(Cl)cc2s1)C(=O)N[C@H](C(=O)N[C@@H](CCCCN)C(=O)NCc1ccncc1)C1CCOCC1` [Example 243], the IC50 under setting [1] was determined as 1510 nM. As for `CCC(=O)N[C@@H](Cc1ccc2ccccc2c1)C(=O)N[C@H](C(=O)N[C@@H](CCCCN)C(=O)N[C@H]1CCCc2ccccc21)[C@@H](C)CC` [Example 16], the IC50 under setting [1] was determined as 795 nM. Consider `CCC(=O)N[C@@H](Cc1nc2ccc(C)cc2s1)C(=O)N[C@@H](Cc1ccccn1)C(=O)N[C@@H](CCCCN)C(=O)N[C@@H]1CCOc2ccccc21` [Example 179], for which the 50% inhibitory concentration (IC50) under setting [1] was 133 nM. Same read-out and setting: then `CCC(=O)N[C@@H](Cc1nc2ccc(Cl)cc2s1)C(=O)N[C@H](C(=O)N[C@@H](CCCCN)C(=O)N[C@@H]1CCOc2ccccc21)C1CCOCC1` [Example 37], with 49 nM; and `CCC(=O)N[C@@H](Cc1cn2cc(Cl)ccc2n1)C(=O)N[C@H](C(=O)N[C@@H](CCCCN)C(=O)N[C@@H]1CCOc2ccccc21)C1CCOCC1` [Example 208], with 157 nM; and `CC[C@H](C)[C@H](NC(=O)[C@H](Cc1nc2ccc(C(C)C)cc2s1)NC(=O)NC)C(=O)N[C@@H](CCCCN)C(=O)N[C@@H](CC(C)C)C(N)=O` [Example 278] ({NHMe-CO}-[Ala(6-iPr-benzothiazol-2-yl)]IKL-NH2), with 68.2 nM. For the compound `CCC(=O)N[C@@H](Cc1nc2ccc(Cl)cc2s1)C(=O)N[C@@H](C[C@H]1CC[C@H](CN)CC1)C(=O)N[C@@H](CCCCN(C)C)C(=O)N[C@@H]1CCOc2ccccc21` [Example 45], the IC50 under setting [1] turned out to be 116 nM. As to `CCC(=O)N[C@H](CNC(=O)c1ccccn1)Cc1nc2ccc(Cl)cc2s1` [Example 256], under setting [1], the IC50 amounted to 2140 nM. With `CCC(=O)N[C@@H](Cc1ccc2ccccc2c1)C(=O)N[C@H](C(=O)N[C@@H](CN(C)C)C(=O)NC(c1ccc(F)cc1)c1ccc(F)cc1)C1CCCC1` [Example 139], the IC50 under setting [2] was more than 10000 nM. With `CCC(=O)N[C@@H](Cc1nc2ccc(Cl)cc2s1)C(=O)N[C@@H](Cc1ccncc1)C(=O)N[C@@H](CCCCN)C(=O)N[C@@H]1CCOc2ccccc21` [Example 203], the half-maximal inhibitory concentration (IC50) under setting [1] turned out to be 282 nM. With `CCC(=O)N[C@@H](Cc1nc2ccc(Cl)cc2s1)C(=O)N[C@@H](C[C@H]1CC[C@H](CNC(=O)COCCOCCOCCNC(=O)CCCC[C@@H]2SC[C@@H]3NC(=O)N[C@@H]32)CC1)C(=O)N[C@@H](CCCCN(C)C)C(=O)N[C@@H]1CCOc2ccccc21` [DI-427biotin (NC)], the IC50 under setting [2] was more than 10000 nM. For `CCC(=O)N[C@@H](Cc1nc2ccc(CC)cc2s1)C(=O)N[C@H](CN)[C@@H](C)CC` [Example 215], the concentration for half-maximal inhibition (IC50) under setting [1] turned out to be 230 nM. On the same count and under the same terms, for `CC[C@H](C)[C@H](NC(=O)[C@H](Cc1nc2ccc(C(C)C)cc2s1)NC(C)=O)C(N)=O` [Example 7, (2S,3S)-2-((S)-2-acetamido-3-(6-isopropylbenzo[d]thiazol-2-yl)propanamido)-3-methylpentanamide] the value was 1040 ± 128 nM.

As to `CCC(=O)N[C@@H](Cc1ccc(C)cn1)C(=O)N[C@H](C(=O)N[C@@H](CCCCN)C(=O)NC(c1ccccc1)c1ccccc1)[C@@H](C)CC` [Example 135], under setting [2], the half-maximal inhibitory concentration (IC50) was more than 10000 nM. With `CCC(=O)N[C@@H](Cc1nc2ccc(Cl)cc2s1)C(=O)N[C@@H](C)CN` [Example 220], the half-maximal inhibitory concentration (IC50) under setting [2] was more than 10000 nM. `CCC(=O)N[C@@H](Cc1nc2ccc(Cl)cc2s1)C(=O)N[C@@H](CN)Cc1ccccc1` (stereo in doubt) [Example 88]: the 50% inhibitory concentration (IC50) under setting [2] was more than 10000 nM.

`CC[C@H](C)[C@H](NC(=O)[C@H](Cc1nc2ccc(C(C)C)cc2s1)NC=O)C(=O)N[C@@H](CCCCN)C(=O)N[C@@H](CC(C)C)C(N)=O` [Example 271] (For-[Ala(6-iPr-benzothiazol-2-yl)]IKL-NH2): the IC50 under setting [1] is 122 nM.

As for `CCC(=O)N[C@@H](Cc1ccc2ccccc2c1)C(=O)N[C@H](C(=O)N[C@@H](CCCCN)C(=O)N[C@H]1CCc2ccccc21)[C@@H](C)CC` [Example 14], the IC50 under setting [1] came out at 1930 nM. The same measure, in the same setting: for `CCC(=O)N[C@@H](Cc1nc(C)c(-c2ccc(F)cc2)s1)C(=O)N[C@H](CN)Cc1ccccc1` [Example 100] the value was 2220 nM; for `CCC(=O)N[C@@H](Cc1nc2ccc(C(C)C)cc2s1)C(=O)N[C@H](CNC(=O)C1CNC1)C1CCCCC1` [Example 68], 66.6 nM. For `CCC(=O)N[C@@H](Cc1nc2ccc(C)cc2s1)C(=O)N[C@H](C(=O)N[C@@H](CCCCN)C(=O)NC(c1ccccc1)c1ccccc1)C1CCCC1` [Example 173], the concentration for half-maximal inhibition (IC50) under setting [1] turned out to be 58.1 nM.

On to `CCC(=O)N[C@@H](Cc1ccc2ccccc2c1)C(=O)N[C@H](C(=O)N[C@@H](CCCCN)C(=O)N[C@H](CN)c1ccccc1)C1CCCC1` [Example 150], for which, under setting [1], the concentration for half-maximal inhibition (IC50) stood at 2000 nM. For `CCC(=O)N[C@@H](Cc1ccc2ccccc2c1)C(=O)N[C@H](C(=O)N[C@@H](CCCCN)C(=O)N[C@@H]1CCOc2c(Cl)cccc21)C1CCCC1` [Example 166], the IC50 under setting [1] is 193 nM. Turning to `CCC(=O)N[C@@H](Cc1nc2ccc(C(C)C)cc2s1)C(=O)N[C@@H](C)CN` [Example 54, (S)—N—((S)-1-aminopropan-2-yl)-3-(6-isopropylbenzo[d]thiazol-2-yl)-2-propionamidopropanamide], under setting [2], the 50% inhibitory concentration (IC50) was more than 10000 nM. With `CC[C@H](C)[C@H](NC(=O)[C@H](Cc1nc2cc(Cl)ccc2s1)NC(C)=O)C(=O)N[C@@H](CCCCN)C(=O)N[C@@H](CC(C)C)C(N)=O` [Example 3, (S)-2-((2S,3 S)-2-((S)-2-acetamido-3-(5-chlorobenzo[d]thiazol-2-yl)propanamido)-3-methylpentanamido)-6-amino-N—((S)-1-amino-4-methyl-1-oxopentan-2-yl)hexanamide], under setting [1], the IC50 was 9.2 ± 1.4 nM.

Take `CCC(=O)N[C@@H](Cc1nc2ccccc2s1)C(=O)N[C@H](C(=O)N[C@@H](CCCCN)C(=O)NC(c1ccccc1)c1ccccc1)C1CCCC1` [Example 25]: under setting [1], the IC50 is 397 nM. As for `CCC(=O)N[C@@H](Cc1nc(C)c(-c2ccc([N+](=O)[O-])cc2)s1)C(=O)N[C@H](CN)Cc1ccccc1` [Example 106], under setting [2], the IC50 is more than 10000 nM. Still for that read-out and setting: for `CC[C@H](C)[C@H](NC(=O)[C@H](Cc1ccc2ccccc2c1)NC=O)C(=O)N[C@@H](CCCCN)C(=O)N[C@@H](CC(C)C)C(N)=O` [Example 143] (For-[2Nal]IKL-NH2) the value was more than 10000 nM. On to `CCC(=O)N[C@H](CNC(=O)C1(N)CCCCCC1)Cc1nc2ccc(C(C)C)cc2s1` [Example 115], for which the IC50 under setting [1] turned out to be 2390 nM. Take `CCC(=O)N[C@H](Cc1nc2ccc(Cl)cc2s1)C(=O)N[C@H](C(=O)N[C@@H](CCCCN)C(=O)N[C@@H]1CNCc2ccccc21)C1CCOCC1` [Example 44]: the IC50 under setting [2] is more than 1000 nM. Consider `CCC(=O)N[C@@H](Cc1nc(C)c(-c2cccc(F)c2)s1)C(=O)N[C@H](CN)Cc1ccccc1` [Example 234], for which the half-maximal inhibitory concentration (IC50) under setting [1] is 1280 nM. Take `CC[C@H](C)[C@H](NC(=O)[C@H](Cc1nc2ccc(C(C)C)cc2s1)NC(=O)CC(C)C)C(=O)N[C@@H](CCCCN)C(=O)N[C@@H](CC(C)C)C(N)=O` [Example 277] (Isovaleryl-[Ala(6-iPr-benzothiazol-2-yl)]IKL-NH2): the IC50 under setting [1] stood at 517 nM. With `CCC(=O)N[C@@H](Cc1nc2ccc(C(C)C)cc2s1)C(=O)N[C@H](CNC(=O)C1CCN(C2COC2)CC1)C1CCCCC1` [Example 63], the IC50 under setting [1] stood at 67.3 nM. In the case of `CCC(=O)N[C@H](CNC(=O)Cc1ccccn1)Cc1nc2ccc(Cl)cc2s1` [Example 257], the IC50 under setting [1] came to 3450 nM.

As usually defined, the IC50 is the concentration that gives 50% inhibition.
